How the values were obtained:
[1] = test system: keratinocytes (HaCat line); assay: Proliferation of keratinocytes (HaCat line) in culture medium deficient in growth factors; Cyquant, Nile red and XTT probes; type: cell-based
Procedure: The keratinocytes (HaCat line) are cultured under two conditions: whole defined culture medium (standard condition) and culture medium deficient in growth factors. This deficient medium gives rise to a controlled delay in cell proliferation. Under these conditions, it is then possible to measure the effects of compounds capable of compensating for the deficiency in growth factors of the culture medium and thus of relaunching the cell multiplication and/or of stimulating cell metabolism.
The keratinocyte proliferation is measured by means of three markers on the same cell population: the level of DNA, which is proportional to the number of cells (Cyquant probe), the level of constituent polar lipids of cell membranes (Nile red probe) and the mitochondrial respiration, which reflects the general cell metabolism (XTT probe).

[2] = test system: dermal fibroblasts of the reconstructed skin; assay: Proliferation of dermal fibroblasts in whole reconstructed skin (propidium iodide nuclei count on frozen sections); type: cell-based, human; conditions: 5 mM, 48 hours of treatment, reconstructed skin versus control skin
From the text: Rhamnose was studied on a model of whole reconstructed skin in order to measure its anti-ageing efficacy on the dermal compartment.
(§1) Briefly, the model of reconstructed skin used is that described by Bell et al. (Bell E. et al., The reconstitution of living skin, J. Invest. Dermatol., 1983, July; 81): it includes a dermal equivalent on which is reconstructed a multistratified epidermis; the dermal equivalent is manufactured from acid-soluble collagen, culture medium containing serum and normal adult human fibroblasts. After 5 days of shrinkage, this equivalent is inoculated with keratinocytes and then cultured for 6 days in immersion and for 7 days in emersion in order to obtain a multistratified and differentiated epidermis having a horny layer.
The reconstructed skin is treated with 5 mM rhamnose for 2 days and 5 days in the culture medium; after the treatment, the reconstructed skins are included in Tissue Tek in order to produce frozen sections 7 μm thick with a cryostat. […] Three frozen sections are prepared at random on each reconstructed skin; on each section, two microscopic fields (25× objective lens) are analysed by fluorescence microscopy and photographed. The dermal fibroblasts are thus counted for each reconstructed skin on six images in total representing the six microscopic fields considered. […]

type I procollagen = assay: Synthesis of procollagen 1 in the dermis of reconstructed skin (indirect immunofluorescence); type: cell-based, human; conditions: for procollagen 1 synthesis: reconstructed skin
From the text: as §1
Conventional detection via indirect immunofluorescence of type I procollagen in the dermis of the reconstructed skin was also performed on other series of frozen sections (anti-procoll 1 antibody (MAB 1912 Millipore)+FTIC-coupled conjugate (112-095-068 Jackson Immunoresearch)). In order to obtain bearings within the cutaneous architecture during the microscopic examination of the sections, the cell nuclei of the keratinocytes and fibroblasts are localized by staining them with propidium iodide, as described above. Three frozen sections are prepared at random on each reconstructed skin and on each section, and two microscopic fields (25× objective lens) are analysed by fluorescence microscopy and photographed. The levels of fluorescence proportional to the amount of type I procollagen are compared between the control skin and the skin treated with rhamnose.

[3] = 1 mM, medium depleted in growth factors, versus untreated control

C[C@H](O)[C@H](O)[C@@H](O)[C@@H](O)C=O [rhamnose]
efficacy on keratinocyte proliferation markers ([1]; 500 μM, medium depleted in growth factors): already show efficacy | level of DNA (Cyquant) [1, 3]: significantly increased | level of polar lipids (Nile red signal) [1, 3]: significantly increased | mitochondrial respiration (XTT signal) [1, 3]: significantly increased | keratinocyte proliferation ([1]; HaCat keratinocytes cultured in medium depleted in growth factors, versus untreated control): activate keratinocyte proliferation | growth of the dermal fibroblasts [2]: induces stimulation of growth | green fluorescence proportional to the amount of type I procollagen (type I procollagen; 1 mM for 120 hours, reconstructed skin versus control skin): marked increase in green fluorescence | procollagen 1 synthesis (type I procollagen; 1 mM): stimulation of procollagen 1 synthesis | procollagen 1 synthesis (type I procollagen; 5 mM): stimulation of procollagen 1 synthesis
